Reference: paper PMC8405091, “Microwave-assisted Phospha-Michael addition reactions in the 13α-oestrone series and in vitro antiproliferative properties” (Journal of Enzyme Inhibition and Medicinal Chemistry, 2021)
Like-named read-outs stand apart in the source and are kept apart here.

How the values were obtained:
[1] = system: C33-A cells; experiment: MTT antiproliferative assay, C33-A; format: cell-based, human; conditions: 72 h; for inhibition at 10 µM / inhibition at 30 µM / IC50: Homo sapiens, C-33-A; for IC50: read-out: calculated IC50 value
Procedure: (§1) The antiproliferative properties of the newly synthesized compounds (9–20) and their starting materials (4 and 5) were determined on a panel of human adherent cancer cell lines. MCF-7, MDA-MB-231 and T47D were isolated from breast cancers differing in biochemical background, while A2780 cells were isolated from ovarian cancer. HeLa and SiHa are cervical cancer cell lines positive for HPV-18 and HPV-16, respectively, while C33-A cervical cancer cells are negative for HPV. Moreover, two oropharyngeal cancer cell lines were also utilized: the HPV-negative UPCI-SCC-131 and HPV-16 positive UPCI-SCC-154. The cancer selectivity of compounds was tested on the non-cancerous mouse embryo fibroblast cell line NIH/3T3. All cell lines were purchased from European Collection of Cell Cultures (ECCAC, Salisbury, UK) exception for SiHa and C33-A (American Tissue Culture Collection, Manassas, VA, USA) and HN-SCC-131 and UPCI-SCC-154 (German Collection of Microorganisms and Cell Cultures GmbH, Braunschweig, Germany). Cells were cultivated in minimal essential medium supplemented with 10% fetal bovine serum, 1% non-essential amino acids and an antibiotic–antimycotic mixture. The medium of oropharyngeal cancer cells additionally contained 2.0 mM L-glutamine. All media and supplements were obtained from Lonza Group Ltd., Basel, Switzerland. Near-confluent cancer cells were seeded onto a 96-well microplate at a density of 5,000 cells/well, except for C33-A which were seeded at 10,000/well. After overnight standing, new medium containing the tested compounds at 10 and 30 µM final concentration was added. After incubation for 72 h at 37 °C in humidified air containing 5% CO2, the living cells were assayed by the addition of 20 μL of 5 mg/ml 3-(4,5-dimethylthiazol-2-yl)-2,5-diphenyltetrazolium bromide (MTT) solution. MTT was converted by intact mitochondrial reductase and precipitated as purple crystals during a 4-h contact period. The medium was next removed and the precipitated formazan crystals were dissolved in 100 μL of DMSO during a 60-min period of shaking at 37 ^оC.
(§2) All in vitro experiments were carried out twice with five parallels. Stock solutions of the tested substances (10 mM) were prepared in DMSO. […] Cisplatin (Ebewe Pharma GmbH, Unterach, Austria) was used as positive control.

[2] = system: UPCI-SCC-131 cells; experiment: MTT antiproliferative assay, UPCI-SCC-131; format: cell-based, human; conditions: for inhibition at 10 µM / inhibition at 30 µM / IC50: Homo sapiens; for inhibition at 10 µM / inhibition at 30 µM: read-out: Growth inhibition, % ± SEM; for IC50: read-out: calculated IC50 value
Procedure: as §1, §2

[3] = system: A2780 cells; experiment: MTT antiproliferative assay, A2780; format: cell-based, human
Procedure: as §1, §2

[4] = system: HeLa cells; experiment: MTT antiproliferative assay, HeLa; format: cell-based, human; conditions: 72 h; for inhibition at 10 µM / inhibition at 30 µM / IC50: Homo sapiens; for IC50: read-out: calculated IC50 value
Procedure: as §1, §2

[5] = system: MCF-7 cells; experiment: MTT antiproliferative assay, MCF-7; format: cell-based, human; conditions: for inhibition at 10 µM / inhibition at 30 µM / IC50: Homo sapiens; for inhibition at 10 µM / inhibition at 30 µM / Growth inhibition; % ± SEM: 72 h; for inhibition at 10 µM / inhibition at 30 µM: read-out: Growth inhibition, % ± SEM; for IC50: read-out: calculated IC50 value
Procedure: as §1, §2

[6] = system: non-cancerous mouse embryo fibroblast (NIH/3T3) cells; experiment: MTT assay on non-cancerous fibroblasts (tumour selectivity); format: cell-based; conditions: for inhibition at 10 µM / inhibition at 30 µM / IC50: Mus musculus; for inhibition at 10 µM / inhibition at 30 µM: read-out: Growth inhibition, % ± SEM; for IC50: read-out: calculated IC50 value
Procedure: as §1, §2

[7] = system: SiHa cells; experiment: MTT antiproliferative assay, SiHa; format: cell-based, human; conditions: 72 h; for inhibition at 10 µM / inhibition at 30 µM / IC50: Homo sapiens; for IC50: read-out: calculated IC50 value
Procedure: as §1, §2

[8] = system: UPCI-SCC-154 cells; experiment: MTT antiproliferative assay, UPCI-SCC-154; format: cell-based, human; conditions: for inhibition at 10 µM / inhibition at 30 µM / IC50: Homo sapiens; for inhibition at 10 µM / inhibition at 30 µM: read-out: Growth inhibition, % ± SEM; for IC50: read-out: calculated IC50 value
Procedure: as §1, §2

[9] = system: MDA-MB-231 cells; experiment: MTT antiproliferative assay, MDA-MB-231; format: cell-based, human
Procedure: as §1, §2

[10] = system: T47D cells; experiment: MTT antiproliferative assay, T47D; format: cell-based, human; conditions: 72 h; for inhibition at 10 µM / inhibition at 30 µM / IC50: Homo sapiens; for IC50: read-out: calculated IC50 value
Procedure: as §1, §2

[11] = 10 μM, read-out: Growth inhibition, % ± SEM
[12] = 30 μM, read-out: Growth inhibition, % ± SEM
[13] = read-out: Growth inhibition, % ± SEM, 10 μM
[14] = read-out: Growth inhibition, % ± SEM, 30 μM
[15] = Homo sapiens, MDA-MB-231, 72 h, read-out: Growth inhibition; % ± SEM

C=C1C[C@H]2[C@@H]3CCc4cc(OCc5ccccc5)ccc4[C@H]3CC[C@@]2(C)C1=O [Compound 5]
inhibition at 10 µM ([1]; C33-A, 10 μM, read-out: Growth inhibition, % ± SEM): 93.9 ± 2.56%
inhibition at 30 µM ([1]; C33-A, 30 μM, read-out: Growth inhibition, % ± SEM): 100 ± 0.23%
IC50 ([1]; C33-A): 3.75 µM
inhibition at 10 µM ([2]; UPCI-SCC-131, 10 μM, 72 h): 99.54 ± 0.33%
inhibition at 30 µM ([2]; UPCI-SCC-131, 30 μM, 72 h): 99.94 ± 0.44%
IC50 ([2]; UPCI-SCC-131, 72 h): 2.38 µM
IC50 ([3]; Homo sapiens, A2780, 72 h; read-out: calculated IC50 value): 6.7 µM
inhibition at 10 µM ([3]; Homo sapiens; A2780, 10 μM, 72 h; read-out: Growth inhibition; % ± SEM): 94.8 ± 2.13%
inhibition at 30 µM ([3]; Homo sapiens; A2780, 30 μM, 72 h; read-out: Growth inhibition; % ± SEM): 100.9 ± 0.18%
inhibition at 10 µM [4, 11]: 75.1 ± 3.73%
inhibition at 30 µM [4, 12]: 99.65 ± 0.25%
IC50 [4]: 6.99 µM
inhibition at 10 µM ([5]; MCF7, MCF-7, 10 μM): 99.7 ± 0.43%
inhibition at 30 µM ([5]; MCF7, MCF-7, 30 μM): 100.6 ± 0.31%
IC50 ([5]; MCF7, MCF-7, 72 h): 3.35 µM
inhibition at 10 µM ([6]; NIH3T3, NIH/3T3, 10 μM, 72 h): 100.8 ± 0.16%
inhibition at 30 µM ([6]; NIH3T3, NIH/3T3, 30 μM, 72 h): 100.3 ± 0.25%
IC50 ([6]; NIH3T3, NIH/3T3, 72 h): 2.74 µM
inhibition at 10 µM [7, 11]: 98.98 ± 0.26%
inhibition at 30 µM [7, 12]: 99.97 ± 0.42%
IC50 [7]: 2.3 µM
inhibition at 10 µM ([8]; UPCI-SCC-154, 10 μM, 72 h): 96.4 ± 0.89%
inhibition at 30 µM ([8]; UPCI-SCC-154, 30 μM, 72 h): 100.3 ± 0.82%
IC50 ([8]; UPCI-SCC-154, 72 h): 4.5 µM
IC50 ([9]; Homo sapiens, MDA-MB-231, 72 h; read-out: calculated IC50 value): 4.07 µM
inhibition at 10 µM ([9]; Homo sapiens; MDA-MB-231, 10 μM, 72 h; read-out: Growth inhibition; % ± SEM): 97.2 ± 1.46%
inhibition at 30 µM ([9]; Homo sapiens; MDA-MB-231, 30 μM, 72 h; read-out: Growth inhibition; % ± SEM): 98.57 ± 0.89%
inhibition at 10 µM [10, 11]: 100.2 ± 0.28%
inhibition at 30 µM [10, 12]: 101.3 ± 0.47%
IC50 [10]: 3.47 µM

COc1ccc2c(c1)CC[C@@H]1[C@@H]2CC[C@@]2(C)C(=O)[C@H](CP(=O)(c3ccccc3)c3ccccc3)C[C@@H]12 [Compound 9, [(3-methoxy-17-oxo-13α-oestra-1,3,5(10)-trien-16α-yl)methyl]diphenylphosphine oxide]
inhibition at 10 µM ([1]; read-out: Growth inhibition, % ± SEM, C33-A, 10 μM): < 20%
inhibition at 30 µM ([1]; read-out: Growth inhibition, % ± SEM, C33-A, 30 μM): 97.85 ± 0.32%
IC50 [1]: 13.3 µM
inhibition at 10 µM ([2]; 72 h, UPCI-SCC-131, 10 μM, 72 h): 63.4 ± 1.41%
inhibition at 30 µM ([2]; 72 h, UPCI-SCC-131, 30 μM, 72 h): 99.35 ± 0.27%
IC50 ([2]; 72 h): 5.3 µM
inhibition at 10 µM ([3]; Homo sapiens, A2780, 72 h, read-out: Growth inhibition; % ± SEM, A2780, 10 μM, 72 h): 47.2 ± 2.75%
inhibition at 30 µM ([3]; Homo sapiens, A2780, 72 h, read-out: Growth inhibition; % ± SEM, A2780, 30 μM, 72 h): 98.99 ± 0.41%
IC50 ([3]; Homo sapiens, A2780, 72 h, read-out: calculated IC50 value): 11.7 µM
inhibition at 10 µM [4, 13]: < 20%
inhibition at 30 µM [4, 14]: 97.59 ± 0.73%
IC50 [4]: 12.9 µM
inhibition at 10 µM ([5]; MCF7, 72 h, MCF-7, 10 μM): 21.3 ± 2.79%
inhibition at 30 µM ([5]; MCF7, 72 h, MCF-7, 30 μM): 93.1 ± 1.6%
IC50 ([5]; MCF7, 72 h): 13.7 µM
inhibition at 10 µM ([6]; NIH3T3, 72 h): < 20%
inhibition at 30 µM ([6]; NIH3T3, 72 h): 96.55 ± 0.86%
IC50 ([6]; NIH3T3, 72 h): 20.4 µM
Tumour selectivity: IC50 on NIH/3T3 relative to IC50 on UPCI-SCC-131 ([6]; NIH/3T3 vs UPCI-SCC-131): four times higher
inhibition at 10 µM [7, 13]: < 20%
inhibition at 30 µM [7, 14]: 96.5 ± 1.24%
IC50 [7]: 13.8 µM
inhibition at 10 µM ([8]; 72 h, UPCI-SCC-154, 10 μM, 72 h): < 20%
inhibition at 30 µM ([8]; 72 h, UPCI-SCC-154, 30 μM, 72 h): 99.8 ± 1.48%
IC50 ([8]; 72 h): 13.5 µM
inhibition at 10 µM [9, 15]: < 20%
inhibition at 30 µM [9, 15]: 99.03 ± 0.73%
IC50 ([9]; Homo sapiens, MDA-MB-231, 72 h, read-out: calculated IC50 value): 23.5 µM
inhibition at 10 µM [10, 13]: 57.5 ± 3.15%
inhibition at 30 µM [10, 14]: 93.77 ± 0.55%
IC50 [10]: 7.2 µM

CC12CCC3c4ccc(OCc5ccccc5)cc4CCC3C1CC(CP(=O)(c1ccc3ccccc3c1)c1ccc3ccccc3c1)C2=O (stereo not drawn) [Compound 20, [(3-benzyloxy-17-oxo-13α-oestra-1,3,5(10)-trien-16β-yl)methyl]di(naphtalen-2-yl)phosphine oxide]
Growth inhibition; % ± SEM ([1]; C33-A, 10 μM): 27.94 ± 0.89%
Growth inhibition; % ± SEM ([1]; C33-A, 30 μM): 26.53 ± 1.06%
Growth inhibition; % ± SEM ([2]; UPCI-SCC-131, 10 μM, 72 h, 10 µM): 48.25 ± 1.46%
Growth inhibition; % ± SEM ([2]; UPCI-SCC-131, 30 μM, 72 h, 30 µM): 61.12 ± 1.32%
Growth inhibition; % ± SEM ([3]; A2780, 10 μM, 72 h): – (Inhibition values <20% are not presented.)
Growth inhibition; % ± SEM ([3]; A2780, 30 μM, 72 h; 30 µM): – (Inhibition values <20% are not presented.)
Growth inhibition; % ± SEM ([4]; 10 μM): – (Inhibition values <20% are not presented.)
Growth inhibition; % ± SEM ([4]; 30 μM): – (Inhibition values <20% are not presented.)
Growth inhibition; % ± SEM ([5]; MCF-7, 10 μM, 10 µM): 28.24 ± 1.66%
Growth inhibition; % ± SEM ([5]; MCF-7, 30 μM, 30 µM): 22.21 ± 2.78%
Growth inhibition; % ± SEM ([7]; 10 μM): – (Inhibition values <20% are not presented.)
Growth inhibition; % ± SEM ([7]; 30 μM): – (Inhibition values <20% are not presented.)
Growth inhibition; % ± SEM ([8]; UPCI-SCC-154, 10 μM, 72 h, 10 µM): 30.97 ± 2.54%
Growth inhibition; % ± SEM ([8]; UPCI-SCC-154, 30 μM, 72 h, 30 µM): 28.72 ± 1.11%
Growth inhibition; % ± SEM ([9]; MDA-MB-231, 10 μM, 72 h): – (Inhibition values <20% are not presented.)
Growth inhibition; % ± SEM ([9]; MDA-MB-231, 30 μM, 72 h): – (Inhibition values <20% are not presented.)
Growth inhibition; % ± SEM ([10]; 10 μM): 66.09 ± 0.76%
Growth inhibition; % ± SEM ([10]; 30 μM): 68.56 ± 1.81%
